The structures appear in SMILES notation. Active and inactive are the calls of the source. The rule behind the calls is not given here.

Assay type in all cases: functional, organism-based
Test [1] deals with Coptotermes formosanus. As to the kind of experiment: Feeding stimulant effect in Coptotermes formosanus undifferentiated larvae using 0.5% w/w compound treated filter paper disks measured after 1 week by no-choice feeding test.
Test [2] deals with Coptotermes formosanus. The experiment in a line: Antifeeding activity against Coptotermes formosanus undifferentiated larvae assessed as induction of feeding deterrence using 0.5% w/w compound treated filter paper disks measured after 1 week by no-choice feeding test.
Test [3] relates to Coptotermes formosanus. The experiment in a line: Antifeeding activity against Coptotermes formosanus undifferentiated larvae assessed as induction of feeding deterrence compound treated filter paper disks measured after 1 week by no-choice feeding test.

As to `CCCCCCCCCCCCCCCCCCOC(=O)c1cc(O)c(O)c(O)c1`, in the test with Coptotermes formosanus [1], the outcome was Active.
With `CCCCCCOC(=O)c1cc(O)c(O)c(O)c1`, the result in the test on Coptotermes formosanus [2] was Active.
Consider `CCCCCCCCCCOC(=O)c1cc(O)c(O)c(O)c1` [DECYL GALLATE], for which, in the test with Coptotermes formosanus [2], the outcome was Active. Further, the IC50 in the test with Coptotermes formosanus [3] was found to be 0.05%.
`CCCCCCCCCCCCOC(=O)c1cc(O)c(O)c(O)c1`: the result in the test on Coptotermes formosanus [2] was Active.
The same measure, in the same setting: the value for `CCCOC(=O)c1cc(O)c(O)c(O)c1` was “Active”; that for `CCCCCCCCOC(=O)c1cc(O)c(O)c(O)c1` was “Active”; that for `CCCCCCCCCCCCCCOC(=O)c1cc(O)c(O)c(O)c1` was “Active”.

The record behind these values is ChEMBL document CHEMBL3045580, “New aspect of gallic esters: marked effect on termite feeding” (J Pestic Sci, 2011).
